This experiment concerns the target T1, H2-K^d (Mus musculus, UniProt P01902).
T1 construct: expressed in transfected cells; host or cells: RMA/S lymphoma cell line expressing H2-K^d
T1 sequence (P01902 22-368): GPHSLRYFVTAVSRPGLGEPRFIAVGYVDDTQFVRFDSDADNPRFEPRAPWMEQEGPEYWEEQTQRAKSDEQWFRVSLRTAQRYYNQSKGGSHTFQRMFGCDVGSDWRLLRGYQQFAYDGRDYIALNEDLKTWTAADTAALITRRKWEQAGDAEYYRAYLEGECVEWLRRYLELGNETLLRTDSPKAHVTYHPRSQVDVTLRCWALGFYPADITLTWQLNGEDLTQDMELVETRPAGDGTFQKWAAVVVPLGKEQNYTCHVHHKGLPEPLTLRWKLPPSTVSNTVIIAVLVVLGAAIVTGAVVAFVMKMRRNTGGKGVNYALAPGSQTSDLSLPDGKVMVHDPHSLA
T1 sequence (P01887 21-119 partner): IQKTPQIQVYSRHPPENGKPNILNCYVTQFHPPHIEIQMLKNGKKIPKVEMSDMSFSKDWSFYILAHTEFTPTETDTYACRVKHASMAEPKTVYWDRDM
As to the kind of experiment: MHC binding assay (RMA/S cells expressing H2-K^d). Further details: species or system murine. As to conditions: H2-K^d stabilization, read-out: apparent Kd. The method, then:
RMA/S cells expressing H2-K^d were used to test MHC binding as described.
The affinity of SYQKSINNI for H2-K^d was determined using an RMA/S lymphoma cell line expressing H2-Kd as previously described.
Fig 4 The PyMDH epitope binds to murine H2-K^d. RMA/S cells expressing H2-K^d were incubated with peptides for PyCSP (squares), PyMDH (circles) or non-specific peptide. PyCSP and PyMDH peptides stabilized H2-K^d, indicative of specific MHC binding. Error bars indicate the 95% confidence interval.

The structures appear in SMILES notation. Peptide text beside a SMILES is read from it.

With `CC[C@H](C)[C@H](NC(=O)[C@H](CCC(N)=O)NC(=O)[C@H](CCC(=O)O)NC(=O)[C@H](C)NC(=O)[C@H](CO)NC(=O)[C@@H]1CCCN1C(=O)[C@@H](NC(=O)[C@H](Cc1ccc(O)cc1)NC(=O)[C@@H](N)CO)C(C)C)C(=O)O` [PyCSP peptide] (H-SYVPSAEQI-OH), the Kd stood at 9.6 nM. In the case of `CC[C@H](C)[C@H](NC(=O)[C@H](CC(N)=O)NC(=O)[C@H](CC(N)=O)NC(=O)[C@@H](NC(=O)[C@H](CO)NC(=O)[C@H](CCCCN)NC(=O)[C@H](CCC(N)=O)NC(=O)[C@H](Cc1ccc(O)cc1)NC(=O)[C@@H](N)CO)[C@@H](C)CC)C(=O)O` [PyMDH peptide] (H-SYQKSINNI-OH), the Kd stood at 11.6 nM.

For the origin of these results see paper PMC4829254, “Complex Minigene Library Vaccination for Discovery of Pre-Erythrocytic Plasmodium T Cell Antigens” (PLoS ONE, 2016).
